Legend:
[1] = Measurement of 1-octanol/water partition coefficient (LogPOW) by HPLC, OECD Test Guideline 117; type: physicochemical; details: for LogPOW: 1-octanol/water, HPLC, OECD Test Guideline 117, column temperature 40° C.; for bioaccumulation potential: judged from the LogPOW value, compared to APFO
Experimental: In accordance with OECD Test Guideline 117, 1-octanol/water partition coefficient (LogPOW) of a fluorinated emulsifier was measured by using HPLC (high performance liquid chromatography).
Conditions for the measurement were as follows: column: TOSOH ODS-120T column (φ 4.6 mm×250 mm), eluent: acetonitrile/0.6 mass % of HClO4 solution=1/1 (vol/vol %), flow rate: […], sample amount: 300 μL, column temperature: 40° C., and detection light: UV 210 nm (WO2005-42593).
HPLC was carried out on standard substances (heptanoic acid, octanoic acid, nonanoic acid and decanoic acid) having known 1-octanol/water partition coefficients, and a calibration curve was prepared from the respective elution times and octanol/water partition coefficients of the respective standard substances. Based on this calibration curve, a value of partition coefficient (LogPOW) between 1-octanol and water was calculated from the elution time by HPLC of the fluorinated emulsifier.
Further, in general, in order to judge whether or not a chemical substance is apt to be accumulated in a living organism, a testing method for measurement of a partition coefficient (LogPOW) between 1-octanol and water, is stipulated. As the testing method, in addition to “Partition Coefficient (1-octanol/water) Shake Flask Method” as stipulated in OECD test guideline 107 and in Japanese Industrial Standards Z 7260-107 (2000), a HPLC method (high-performance liquid chromatography) as stipulated and published in OECD Test Guideline 117, is used. A compound having a large partition coefficient value has a large tendency for bioaccumulation, and a compound having a small value means a small tendency for bioaccumulation. In a case where the LogPOW value is less than 3.5, it is considered proper to judge that it is not a high-concentration, and bioaccumulation is also considered to be small.

small animal = details: it has been pointed out; cited from earlier work

LogPOW [1]	Molecule	accumulation potential in a body of a small animal (small animal)	bioaccumulation potential [1]
4.03	N.O=C(O)C(F)(OC(F)(F)C(F)(OC(F)(F)C(F)(F)F)C(F)(F)F)C(F)(F)F (stereo not drawn) [CF3CF2OCF(CF3)CF2OCF(CF3)COONH4]	–	high and higher bioaccumulation potential than APFO
3.13	CF3CF2OCF2CF2OCF2COONH4	–	low

Molecule	LogPOW [1]	accumulation potential in a body of a small animal (small animal)	bioaccumulation potential [1]
N.O=C(O)C(F)(F)C(F)(F)C(F)(F)C(F)(F)C(F)(F)C(F)(F)C(F)(F)F [CF3(CF2)6COONH4, ammonium perfluorooctanoate]	3.67	has an accumulation potential	–
